Reference: US20210269504A1, “PROTEIN-BASED MICELLES FOR THE DELIVERY OF HYDROPHOBIC ACTIVE COMPOUNDS” (priority 2018, published 2021)

Assay: Loading of 2Yx2A micelles with pyraclostrobin (A280 and HPLC quantification)
Assay type: physicochemical
Protocol: Pyraclostrobin is a highly water-insoluble organic compound that is also a potent fungicide. […] To determine if pyraclostrobin could be taken up into 2Yx2A micelles, pyraclostrobin was added until it saturated a solution of 100 μL of 11 μM (A280: 0.361) 2Yx2A, evidenced by yellow particulates. The solution was then centrifuged and the supernatant was removed and then placed in a fresh tube and centrifuged again. Supernatant removal and centrifugation were repeated 3 times to remove any insoluble pyraclostrobin that has not partitioned into the micelle interior. The solution was then measured with a nanodrop to determine its absorbance at 280 nm resulting in an A280 of 0.502 (+0.141 mAU). Given the pyrene extinction coefficient of 24,000 at A275, this increase in absorbance corresponds to the presence of 5.8 μM pyrene. Similarly, the same sample can be analyzed for pyraclostrobin content via HPLC using a calibration curved developed using known pyrene concentrations in acetonitrile (FIG. 18A). For HPLC analysis the protein-pyraclostrobin solution is diluted to ½ of its volume by pyrene to break apart the micelles. Then a known volume is injected onto the HPLC (FIG. 18B). Based on the area of the pyrene peak and volume injected the number of moles and thus the concentration of pyraclostrobin can be determined. Using this method, 7.37 μM pyraclostrobin is encapsulated in 11 μM of protein.
Instead of directly adding pyraclostrobin to a solution of 2Yx2A micelles an alternative method was used to achieve higher loading efficiency. This method involved the co-resuspension of lyophilized protein and pyraclostrobin in THF which is then slowly diluted with buffer. The solution was then centrifuged and the supernatant was removed and then placed in a fresh tube and centrifuged again. Supernatant removal and centrifugation were repeated 3 times to remove any insoluble pyraclostrobin that has not partitioned into the micelle interior. The sample was then lyophilized to remove all solvent and then resuspended in milliQ water. Although no visible precipitation was observed, the sample was centrifuged to remove any unincorporated pyraclostrobin. For HPLC analysis the protein-pyraclostrobin solution is diluted to ½ of its volume by pyrene to break apart the micelles. Then a known volume is injected onto the HPLC. Based on the area of the pyrene peak and volume injected the number of moles and thus the concentration of pyraclostrobin can be determined.

SMILES | Concentration present from increase in A280 (direct addition to 11 μM 2Yx2A, +0.141 absorbance, extinction coefficient 24,000) [µM] | Concentration encapsulated in micelles (HPLC) (direct addition to 11 μM 2Yx2A) [µM] | Amount injected on the HPLC (resuspended in water, without 2Yx2A) [nmol] | Amount injected on the HPLC (resuspended with 2Yx2A (THF co-resuspension, 100 mM PB pH 5.7)) [nmol]
c1cc2ccc3cccc4ccc(c1)c2c34 [pyrene] | 5.8 | – | – | –
COC(=O)N(OC)c1ccccc1COc1ccn(-c2ccc(Cl)cc2)n1 [pyraclostrobin] | – | 7.37 | 0.03 | 0.63
